Reference: patent US20220354754A1, “FOAM COMPOSITIONS” (The Procter & Gamble Company, priority 2021, published 2022)

Test: Water solubility of blowing agents at 20° C.
Conditions: in water

Q: For CCCC [Butane], which “Water solubility at 20° C. (weight percent)” value is on record?
A: The value was under 0.01% weight percent.

Q: For O=C=O [Carbon dioxide], which “Water solubility at 20° C. (weight percent)” value is on record?
A: The value was 0.8% weight percent.

Q: For COC [Dimethyl ether], which “Water solubility at 20° C. (weight percent)” value is on record?
A: The value was 7% weight percent.

Q: With [He] [Helium] as the compound, how does the “Water solubility at 20° C. (weight percent)” value read?
A: Its value is under 0.01 weight percent.

Q: With CC(C)C [Isobutane] as the compound, how does the “Water solubility at 20° C. (weight percent)” value read?
A: The value was under 0.01% weight percent.

Q: With [N-]=[N+]=O [Nitrous oxide] as the compound, how does the “Water solubility at 20° C. (weight percent)” value read?
A: The value was 0.12 weight percent.
